Where a name gives a salt, the structure may show the parent alone.
Biological target: T1, PDE4B (human recombinant) (Homo sapiens, UniProt Q07343)
T1 construct: made in house
Test: Inhibition of PDE4B activity: SPA and/or Fluorescence Polarisation (FP) assay
Format: biochemical
Conditions: one reading (n=1) or average of 2 or more readings, read-out: PDE4B pIC50 (±about 0.5) (converted)
Method in brief: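 Human recombinant PDE4B activity measured by SPA with [3H]cAMP at about 10 nM, 1 h at ambient temperature, enzyme set for ≤20% substrate hydrolysis, or by IMAP FP with Fl-cAMP at about 40 nM, 40 min at ambient temperature under linear conditions. Inhibition curves fitted; values reported as pIC50.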

T1 sequence (Q07343 1-564 isoform Q07343-2): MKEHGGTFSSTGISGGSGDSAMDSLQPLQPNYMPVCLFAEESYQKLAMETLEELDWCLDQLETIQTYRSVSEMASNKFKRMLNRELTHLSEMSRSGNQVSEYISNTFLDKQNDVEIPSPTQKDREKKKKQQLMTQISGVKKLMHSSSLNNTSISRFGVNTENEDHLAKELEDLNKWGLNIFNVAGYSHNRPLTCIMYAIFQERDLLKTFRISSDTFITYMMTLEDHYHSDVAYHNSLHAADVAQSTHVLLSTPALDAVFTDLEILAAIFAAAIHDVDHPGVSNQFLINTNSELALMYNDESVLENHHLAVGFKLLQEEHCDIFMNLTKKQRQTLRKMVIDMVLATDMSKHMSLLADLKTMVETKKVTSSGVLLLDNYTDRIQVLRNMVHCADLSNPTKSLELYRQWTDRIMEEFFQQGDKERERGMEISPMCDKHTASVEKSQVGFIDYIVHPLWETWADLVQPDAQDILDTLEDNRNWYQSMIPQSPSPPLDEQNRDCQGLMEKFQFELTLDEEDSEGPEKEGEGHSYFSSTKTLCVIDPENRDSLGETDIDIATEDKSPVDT

Row | Compound | IC50 [nM]
1 | CCc1nc2c(cnn2CC)c(NC2CCOCC2)c1CN1Cc2ccc(F)cc2C1=O [Example 315, 2-{[1,6-diethyl-4-(tetrahydro-2H-pyran-4-ylamino)-1H-pyrazolo[3,4-b]pyridin-5-yl]methyl}-6-fluoro-2,3-dihydro-1H-isoindol-1-one] | 0.01 to 0.1
2 | CCn1ncc2c(NC3CCOCC3)c(CNC(=O)c3ccc(C(C)(C)C)cc3O)c(C)nc21 [Example 285, 4-(1,1-dimethylethyl)-N-{[1-ethyl-6-methyl-4-(tetrahydro-2H-pyran-4-ylamino)-1H-pyrazolo[3,4-b]pyridin-5-yl]methyl}-2-hydroxybenzamide] | 0.01 to 0.1
3 | CCc1nc2c(cnn2CC)c(NC2CCN(C(N)=O)CC2)c1CNC(=O)c1ccc2c(c1)CCC2 [Example 206, 4-[(5-{[(2,3-dihydro-1H-inden-5-ylcarbonyl)amino]methyl}-1,6-diethyl-1H-pyrazolo[3,4-b]pyridin-4-yl)amino]-1-piperidinecarboxamide] | 0.126 to 1
4 | CCn1ncc2c(NC3CCOCC3)c(CNC(=O)c3ccc(C(N)=O)cc3)c(C)nc21 [Example 279, N-{[1-ethyl-6-methyl-4-(tetrahydro-2H-pyran-4-ylamino)-1H-pyrazolo[3,4-b]pyridin-5-yl]methyl}-1,4-benzenedicarboxamide] | 0.126 to 1
5 | CCn1ncc2c(NC3CCOCC3)c(CN3Cc4ccc(C(F)(F)F)cc4C3=O)c(C)nc21 [Example 316, 2-{[1-ethyl-6-methyl-4-(tetrahydro-2H-pyran-4-ylamino)-1H-pyrazolo[3,4-b]pyridin-5-yl]methyl}-6-(trifluoromethyl)-2,3-dihydro-1H-isoindol-1-one] | 0.01 to 0.1
6 | CCc1nc2c(cnn2CC)c(NC2CCN(C(N)=O)CC2)c1CNC(=O)c1ccc(NC(C)=O)c2c1OCC2 [Example 304, 4-({5-[({[4-(acetylamino)-2,3-dihydro-1-benzofuran-7-yl]carbonyl}amino)methyl]-1,6-diethyl-1H-pyrazolo[3,4-b]pyridin-4-yl}amino)-1-piperidinecarboxamide] | 0.01 to 0.1
7 | CCc1nc2c(cnn2CC)c(NC2CCN(C(N)=O)CC2)c1CNC(=O)c1ccc(C(C)(C)C)cc1O [Example 302, 4-({5-[({[4-(1,1-dimethylethyl)-2-hydroxyphenyl]carbonyl}amino)-methyl]-1,6-diethyl-1H-pyrazolo[3,4-b]pyridin-4-yl}amino)-1-piperidine-carboxamide Formate] | 0.01 to 0.1
8 | CCn1ncc2c(NC3CCOCC3)c(CNC(=O)c3ccc(C(=O)NC)cc3)c(C)nc21 [Example 283, N-{[1-ethyl-6-methyl-4-(tetrahydro-2H-pyran-4-ylamino)-1H-pyrazolo[3,4-b]pyridin-5-yl]methyl}-N′-methyl-1,4-benzenedicarboxamide] | 0.126 to 1
9 | CCc1nc2c(cnn2CC)c(NC2CCN(C(N)=O)CC2)c1CNC(=O)c1ccco1 [Example 240, 4-[(1,6-diethyl-5-{[(2-furanylcarbonyl)amino]methyl}-1H-pyrazolo[3,4-b]pyridin-4-yl)amino]-1-piperidinecarboxamide] | 0.01 to 0.1
10 | CCn1ncc2c(NC3CCN(C(N)=O)CC3)c(CNC(=O)c3ccccc3O)c(C)nc21 [Example 260, 4-{[1-ethyl-5-({[(2-hydroxyphenyl)carbonyl]amino}methyl)-6-methyl-1H-pyrazolo[3,4-b]pyridin-4-yl]amino}-1-piperidinecarboxamide] | 0.01 to 0.1
11 | CCn1ncc2c(NC3CCN(C(N)=O)CC3)c(CNC(=O)c3ccc(C(C)(C)C)cc3)c(C)nc21 [Example 262, 4-({5-[({[4-(1,1-dimethylethyl)phenyl]carbonyl}amino)methyl]-1-ethyl-6-methyl-1H-pyrazolo[3,4-b]pyridin-4-yl}amino)-1-piperidinecarboxamide] | 0.01 to 0.1
12 | CCn1ncc2c(NC3CCN(C(N)=O)CC3)c(CNC(=O)c3ccc(C)c4c3OCC4)c(C)nc21 [Example 274, 4-{[1-ethyl-6-methyl-5-({[(4-methyl-2,3-dihydro-1-benzofuran-7-yl)carbonyl]amino}methyl)-1H-pyrazolo[3,4-b]pyridin-4-yl]amino}-1-piperidinecarboxamide] | 0.01 to 0.1
13 | CCc1nc2c(cnn2CC)c(NC2CCOCC2)c1CNC(=O)c1cc(S(=O)(=O)N(CC)CC)ccc1OC [Example 185, 5-[(diethylamino)sulfonyl]-N-{[1,6-diethyl-4-(tetrahydro-2H-pyran-4-ylamino)-1H-pyrazolo[3,4-b]pyridin-5-yl]methyl}-2-(methyloxy)benzamide] | 0.01 to 0.1
14 | CCn1ncc2c(NC3CCOCC3)c(CNC(=O)c3ccc4c(c3)CCCS4(=O)=O)c(C)nc21 [Example 287, N-{[1-ethyl-6-methyl-4-(tetrahydro-2H-pyran-4-ylamino)-1H-pyrazolo[3,4-b]pyridin-5-yl]methyl}-3,4-dihydro-2H-1-benzothiopyran-6-carboxamide 1,1-dioxide] | 0.126 to 1
15 | CCn1ncc2c(NC3CCOCC3)c(CNC(=O)c3ccc(C(C)C)cc3)c(C)nc21 [Example 278, N-{[1-ethyl-6-methyl-4-(tetrahydro-2H-pyran-4-ylamino)-1H-pyrazolo[3,4-b]pyridin-5-yl]methyl}-4-(1-methylethyl)benzamide] | 0.01 to 0.1
16 | CCc1nc2c(cnn2CC)c(NC2CCN(C(N)=O)CC2)c1CNC(=O)c1ccccc1F [Example 246, 4-{[1,6-diethyl-5-({[(2-fluorophenyl)carbonyl]amino}methyl)-1H-pyrazolo[3,4-b]pyridin-4-yl]amino}-1-piperidinecarboxamide] | 0.01 to 0.1

More lines, now with the values ahead:

Row | IC50 [nM] | Compound
17 | 0.01 to 0.1 | CCc1nc2c(cnn2CC)c(NC2CCOCC2)c1CNC(=O)c1ccc(C(C)(C)C)cc1O [Example 256, N-{[1,6-diethyl-4-(tetrahydro-2H-pyran-4-ylamino)-1H-pyrazolo[3,4-b]pyridin-5-yl]methyl}-4-(1,1-dimethylethyl)-2-hydroxybenzamide]
18 | 0.126 to 1 | CCn1ncc2c(NC3CCOCC3)c(CNC(=O)c3cc(C)on3)c(C)nc21 [Example 225, N-{[1-ethyl-6-methyl-4-(tetrahydro-2H-pyran-4-ylamino)-1H-pyrazolo[3,4-b]pyridin-5-yl]methyl}-5-methyl-3-isoxazolecarboxamide]
19 | 0.01 to 0.1 | CCc1nc2c(cnn2CC)c(NC2CCOCC2)c1CNC(=O)c1cnc(C)cn1 [Example 236, N-{[1,6-diethyl-4-(tetrahydro-2H-pyran-4-ylamino)-1H-pyrazolo[3,4-b]pyridin-5-yl]methyl}-5-methyl-2-pyrazinecarboxamide]
20 | 0.126 to 1 | CCc1nc2c(cnn2CC)c(NC2CCOCC2)c1CNC(=O)c1cnccn1 [Example 146, N-{[1,6-diethyl-4-(tetrahydro-2H-pyran-4-ylamino)-1H-pyrazolo[3,4-b]pyridin-5-yl]methyl}-2-pyrazinecarboxamide]
21 | 0.126 to 1 | CCn1ncc2c(NC3CCOCC3)c(CNC(=O)c3cnc(C(C)(C)C)nc3)c(C)nc21 [Example 336, 2-(1,1-dimethylethyl)-N-{[1-ethyl-6-methyl-4-(tetrahydro-2H-pyran-4-ylamino)-1H-pyrazolo[3,4-b]pyridin-5-yl]methyl}-5-pyrimidinecarboxamide]
22 | 0.01 to 0.1 | CCc1nc2c(cnn2CC)c(NC2CCOCC2)c1CNC(=O)c1ccco1 [Example 153, N-{[1,6-diethyl-4-(tetrahydro-2H-pyran-4-ylamino)-1H-pyrazolo[3,4-b]pyridin-5-yl]methyl}-2-furancarboxamide]
23 | 0.01 to 0.1 | CCc1nc2c(cnn2CC)c(NC2CCOCC2)c1CNC(=O)c1csc(C(F)(F)F)n1 [Example 339, N-{[1,6-diethyl-4-(tetrahydro-2H-pyran-4-ylamino)-1H-pyrazolo[3,4-b]pyridin-5-yl]methyl}-2-(trifluoromethyl)-1,3-thiazole-4-carboxamide]
24 | 0.01 to 0.1 | CCc1nc2c(cnn2CC)c(NC2CCOCC2)c1CNC(=O)c1ccc(NC(C)=O)cc1 [Example 194, 4-(acetylamino)-N-{[1,6-diethyl-4-(tetrahydro-2H-pyran-4-ylamino)-1H-pyrazolo[3,4-b]pyridin-5-yl]methyl}benzamide]
25 | 0.01 to 0.1 | CCn1ncc2c(NC3CCOCC3)c(CNC(=O)c3ccccc3O)c(C)nc21 [Example 275, N-{[1-ethyl-6-methyl-4-(tetrahydro-2H-pyran-4-ylamino)-1H-pyrazolo[3,4-b]pyridin-5-yl]methyl}-2-hydroxybenzamide]
26 | 0.01 to 0.1 | CCc1nc2c(cnn2CC)c(NC2CCOCC2)c1CNC(=O)c1ccc(C(F)(F)F)o1 [Example 323, N-{[1,6-diethyl-4-(tetrahydro-2H-pyran-4-ylamino)-1H-pyrazolo[3,4-b]pyridin-5-yl]methyl}-5-(trifluoromethyl)-2-furancarboxamide]
27 | 0.01 to 0.1 | CCc1nc2c(cnn2CC)c(NC2CCOCC2)c1CNC(=O)c1ccc(C)cc1O [Example 254, N-{[1,6-diethyl-4-(tetrahydro-2H-pyran-4-ylamino)-1H-pyrazolo[3,4-b]pyridin-5-yl]methyl}-2-hydroxy-4-methylbenzamide]
28 | 0.01 to 0.1 | CCc1nc2c(cnn2CC)c(NC2CCOCC2)c1CNC(=O)c1ccc(C(C)(C)C)cc1 [Example 252, N-{[1,6-diethyl-4-(tetrahydro-2H-pyran-4-ylamino)-1H-pyrazolo[3,4-b]pyridin-5-yl]methyl}-4-(1,1-dimethylethyl)benzamide]
29 | 0.01 to 0.1 | CCn1ncc2c(NC3CCOCC3)c(CNC(=O)c3ccc(C)cc3O)c(C)nc21 [Example 281, N-{[1-ethyl-6-methyl-4-(tetrahydro-2H-pyran-4-ylamino)-1H-pyrazolo[3,4-b]pyridin-5-yl]methyl}-2-hydroxy-4-methylbenzamide]
30 | 0.126 to 1 | CCn1ncc2c(NC3CCOCC3)c(CNC(=O)c3ccccc3F)c(C)nc21 [Example 282, N-{[1-ethyl-6-methyl-4-(tetrahydro-2H-pyran-4-ylamino)-1H-pyrazolo[3,4-b]pyridin-5-yl]methyl}-2-fluorobenzamide]
31 | 0.01 to 0.1 | CCOc1ncccc1C(=O)NCc1c(CC)nc2c(cnn2CC)c1NC1CCOCC1 [Example 159, N-{[1,6-diethyl-4-(tetrahydro-2H-pyran-4-ylamino)-1H-pyrazolo[3,4-b]pyridin-5-yl]methyl}-2-(ethyloxy)-3-pyridinecarboxamide]

Source: US20090131431A1, “Pyrazolo[3,4-b]pyridine compounds, and their use as a PDE4 inhibitors” (priority 2005, published 2009)
